Results as given in ChEMBL document CHEMBL1135108, “Bicyclic piperazinylbenzenesulphonamides are potent and selective 5-HT6 receptor antagonists” (Bioorg Med Chem Lett, 2002).

How the values were obtained:
[1] = target: T1, 5-hydroxytryptamine receptor 1A (Homo sapiens, UniProt P08908); test: The compound was tested for the binding affinity towards human cloned 5-hydroxytryptamine 1A receptor in HEK293 cells, using [3H]8-OH-DPAT as radioligand; type: cell-based
T1 sequence (P08908 whole entry): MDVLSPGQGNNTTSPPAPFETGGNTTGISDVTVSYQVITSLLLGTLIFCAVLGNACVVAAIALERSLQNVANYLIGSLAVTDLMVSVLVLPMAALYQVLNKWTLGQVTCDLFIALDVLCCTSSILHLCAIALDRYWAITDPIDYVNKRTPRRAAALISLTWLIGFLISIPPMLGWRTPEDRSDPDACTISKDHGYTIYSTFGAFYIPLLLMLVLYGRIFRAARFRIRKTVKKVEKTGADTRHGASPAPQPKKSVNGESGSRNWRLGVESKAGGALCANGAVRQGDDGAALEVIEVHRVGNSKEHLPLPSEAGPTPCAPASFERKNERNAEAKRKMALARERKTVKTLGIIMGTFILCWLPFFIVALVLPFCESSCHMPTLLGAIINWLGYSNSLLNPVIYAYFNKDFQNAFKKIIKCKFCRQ

[2] = target: 5-hydroxytryptamine receptor 1E (Homo sapiens, UniProt P28566); test: The compound was tested for the binding affinity towards human cloned 5-hydroxytryptamine 1E receptor in CHO cells, using [3H]5-HT as radioligand; type: cell-based
[3] = target: 5-hydroxytryptamine receptor 4 (Homo sapiens, UniProt Q13639); test: The compound was tested for the binding affinity towards human cloned 5-hydroxytryptamine 4 receptor in HeLa cells, using [3H]LSD as radioligand; type: cell-based
[4] = target: 5-hydroxytryptamine receptor 7 (Homo sapiens, UniProt P34969); test: The compound was tested for the binding affinity towards human cloned 5-hydroxytryptamine 7 receptor in HEK293 cells, using [3H]5-CT as radioligand; type: cell-based
[5] = target: T2, 5-hydroxytryptamine receptor 6 (Homo sapiens, UniProt P50406); test: The compound was tested for the binding affinity towards human cloned 5-hydroxytryptamine 6 receptor in HeLa cells, using […] as radioligand; n=3; type: cell-based
[6] = target: T3, 5-hydroxytryptamine receptor 2C (Homo sapiens, UniProt P28335); test: The compound was tested for the binding affinity towards human cloned 5-hydroxytryptamine 2C receptor in HEK293 cells, using […] as radioligand; type: cell-based
T3 sequence (P28335 whole entry): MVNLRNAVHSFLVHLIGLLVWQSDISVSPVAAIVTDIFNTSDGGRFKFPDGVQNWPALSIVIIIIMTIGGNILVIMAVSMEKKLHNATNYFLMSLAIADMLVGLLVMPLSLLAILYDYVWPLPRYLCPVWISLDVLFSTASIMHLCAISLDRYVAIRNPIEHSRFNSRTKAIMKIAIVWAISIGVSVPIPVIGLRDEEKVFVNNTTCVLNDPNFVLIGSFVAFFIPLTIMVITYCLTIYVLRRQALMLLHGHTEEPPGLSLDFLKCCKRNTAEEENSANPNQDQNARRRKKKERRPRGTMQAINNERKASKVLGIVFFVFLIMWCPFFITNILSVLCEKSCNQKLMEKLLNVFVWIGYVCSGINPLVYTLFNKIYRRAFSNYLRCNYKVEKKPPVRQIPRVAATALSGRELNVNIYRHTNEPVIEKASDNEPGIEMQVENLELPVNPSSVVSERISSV

[7] = target: T4, 5-hydroxytryptamine receptor 1F (Homo sapiens, UniProt P30939); test: The compound was tested for the binding affinity towards human cloned 5-hydroxytryptamine 1F receptor in CHO cells, using [3H]5-HT as radioligand; type: cell-based
T4 sequence (P30939 whole entry): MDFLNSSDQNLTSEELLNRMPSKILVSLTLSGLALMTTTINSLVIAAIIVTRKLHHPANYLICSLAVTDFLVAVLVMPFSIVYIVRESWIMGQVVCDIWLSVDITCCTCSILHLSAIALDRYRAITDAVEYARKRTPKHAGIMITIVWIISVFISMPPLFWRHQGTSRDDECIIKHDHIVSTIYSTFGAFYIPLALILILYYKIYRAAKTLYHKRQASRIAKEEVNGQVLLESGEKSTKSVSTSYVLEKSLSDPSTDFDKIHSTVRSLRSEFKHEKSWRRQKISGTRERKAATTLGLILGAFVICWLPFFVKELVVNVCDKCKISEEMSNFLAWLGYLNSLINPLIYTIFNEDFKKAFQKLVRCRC

[8] = target: 5-hydroxytryptamine receptor 1B (Homo sapiens, UniProt P28222); test: The compound was tested for the binding affinity towards human cloned 5-hydroxytryptamine 1B receptor in CHO cells, using [3H]5-HT as radioligand; type: cell-based
D(2) dopamine receptor = D(2) dopamine receptor (Homo sapiens, UniProt P14416); test: The compound was tested for the binding affinity towards human cloned Dopamine receptor D2 in CHO cells, using [125I]iodosulpride as radioligand; type: cell-based
[9] = target: 5-hydroxytryptamine receptor 1D (Homo sapiens, UniProt P28221); test: The compound was tested for the binding affinity towards human cloned 5-hydroxytryptamine 1D receptor in CHO cells, using [3H]5-HT as radioligand; type: cell-based
[10] = target: 5-hydroxytryptamine receptor 2A (Homo sapiens, UniProt P28223); test: The compound was tested for the binding affinity towards human cloned 5-hydroxytryptamine 2A receptor in HEK293 cells, using [3H]ketanserin as radioligand; type: cell-based
[11] = target: T5, Alpha-1B adrenergic receptor (Homo sapiens, UniProt P35368); test: The compound was tested for the binding affinity towards Alpha-1B adrenergic receptor
T5 sequence (P35368 whole entry): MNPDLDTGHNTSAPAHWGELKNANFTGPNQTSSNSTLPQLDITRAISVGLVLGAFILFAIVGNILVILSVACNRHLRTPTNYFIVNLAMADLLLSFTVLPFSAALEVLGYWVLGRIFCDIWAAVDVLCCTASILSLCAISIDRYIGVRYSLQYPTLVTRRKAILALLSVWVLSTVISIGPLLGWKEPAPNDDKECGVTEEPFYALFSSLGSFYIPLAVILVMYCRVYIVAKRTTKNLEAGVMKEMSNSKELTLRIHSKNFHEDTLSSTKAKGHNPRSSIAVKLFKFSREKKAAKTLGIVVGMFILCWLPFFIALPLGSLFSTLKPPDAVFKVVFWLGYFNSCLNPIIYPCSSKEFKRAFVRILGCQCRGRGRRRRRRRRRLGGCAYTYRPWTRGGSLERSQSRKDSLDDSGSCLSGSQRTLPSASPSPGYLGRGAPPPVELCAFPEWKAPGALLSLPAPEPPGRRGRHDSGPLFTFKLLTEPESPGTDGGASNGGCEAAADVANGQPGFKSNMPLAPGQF

D(3) dopamine receptor = D(3) dopamine receptor (Homo sapiens, UniProt P35462); test: The compound was tested for the binding affinity towards human cloned Dopamine receptor D3 in CHO cells, using [125I]iodosulpride as radioligand; type: cell-based
[12] = target: 5-hydroxytryptamine receptor 2B (Homo sapiens, UniProt P41595); test: The compound was tested for the binding affinity towards human cloned 5-hydroxytryptamine 2B receptor in HEK293 cells, using [3H]5-HT as radioligand; type: cell-based
[13] = target: T2, 5-hydroxytryptamine receptor 6; test: The compound was tested for the binding affinity towards human cloned 5-hydroxytryptamine 6 receptor in HeLa cells, using […] as radioligand; n=9; type: cell-based

Chain of 5-hydroxytryptamine receptor 1D (P28221 whole entry): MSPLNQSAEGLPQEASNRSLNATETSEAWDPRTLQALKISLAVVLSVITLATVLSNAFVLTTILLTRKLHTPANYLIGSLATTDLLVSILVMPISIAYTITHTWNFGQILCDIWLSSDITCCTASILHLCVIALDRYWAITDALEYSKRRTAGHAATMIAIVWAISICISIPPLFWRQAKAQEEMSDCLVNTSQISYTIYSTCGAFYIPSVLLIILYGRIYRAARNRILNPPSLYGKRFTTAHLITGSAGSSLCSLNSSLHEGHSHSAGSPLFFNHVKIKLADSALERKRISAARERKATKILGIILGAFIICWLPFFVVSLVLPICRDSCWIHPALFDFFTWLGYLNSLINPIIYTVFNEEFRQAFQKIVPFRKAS
Chain of 5-hydroxytryptamine receptor 7 (P34969 whole entry): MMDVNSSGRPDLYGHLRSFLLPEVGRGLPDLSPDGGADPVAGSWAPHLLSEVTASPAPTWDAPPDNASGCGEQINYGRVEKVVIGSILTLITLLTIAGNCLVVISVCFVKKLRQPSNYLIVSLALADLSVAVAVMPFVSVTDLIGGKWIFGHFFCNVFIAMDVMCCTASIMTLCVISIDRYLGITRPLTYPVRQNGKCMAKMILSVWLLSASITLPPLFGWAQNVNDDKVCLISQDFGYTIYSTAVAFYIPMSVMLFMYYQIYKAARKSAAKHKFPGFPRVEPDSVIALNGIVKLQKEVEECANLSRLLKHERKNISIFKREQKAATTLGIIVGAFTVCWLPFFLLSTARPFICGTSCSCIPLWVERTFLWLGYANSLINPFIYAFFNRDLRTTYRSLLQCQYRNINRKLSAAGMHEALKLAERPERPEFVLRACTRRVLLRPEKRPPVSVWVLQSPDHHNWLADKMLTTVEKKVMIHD
Chain of 5-hydroxytryptamine receptor 4 (Q13639 whole entry): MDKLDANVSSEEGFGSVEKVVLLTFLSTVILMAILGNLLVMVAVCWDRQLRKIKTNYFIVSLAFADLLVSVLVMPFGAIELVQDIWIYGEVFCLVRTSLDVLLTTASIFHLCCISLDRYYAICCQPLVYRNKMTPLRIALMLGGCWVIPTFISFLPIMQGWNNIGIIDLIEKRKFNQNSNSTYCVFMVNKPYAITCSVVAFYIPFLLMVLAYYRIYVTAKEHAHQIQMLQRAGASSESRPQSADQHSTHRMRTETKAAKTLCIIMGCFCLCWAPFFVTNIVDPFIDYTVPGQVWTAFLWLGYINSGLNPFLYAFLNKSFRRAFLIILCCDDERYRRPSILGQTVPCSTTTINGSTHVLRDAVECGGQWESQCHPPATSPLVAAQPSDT
Chain of D(3) dopamine receptor (P35462 whole entry): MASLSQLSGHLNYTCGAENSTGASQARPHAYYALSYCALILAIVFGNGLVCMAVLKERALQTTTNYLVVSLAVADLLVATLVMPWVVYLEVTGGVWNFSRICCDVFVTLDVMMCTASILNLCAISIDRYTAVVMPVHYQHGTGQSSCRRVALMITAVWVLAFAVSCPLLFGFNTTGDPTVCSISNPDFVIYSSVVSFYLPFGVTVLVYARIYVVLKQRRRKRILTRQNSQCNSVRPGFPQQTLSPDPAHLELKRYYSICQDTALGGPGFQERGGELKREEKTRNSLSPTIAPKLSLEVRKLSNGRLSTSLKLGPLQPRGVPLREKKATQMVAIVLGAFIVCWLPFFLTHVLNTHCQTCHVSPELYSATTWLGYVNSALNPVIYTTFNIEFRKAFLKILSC
Chain of 5-hydroxytryptamine receptor 2A (P28223 whole entry): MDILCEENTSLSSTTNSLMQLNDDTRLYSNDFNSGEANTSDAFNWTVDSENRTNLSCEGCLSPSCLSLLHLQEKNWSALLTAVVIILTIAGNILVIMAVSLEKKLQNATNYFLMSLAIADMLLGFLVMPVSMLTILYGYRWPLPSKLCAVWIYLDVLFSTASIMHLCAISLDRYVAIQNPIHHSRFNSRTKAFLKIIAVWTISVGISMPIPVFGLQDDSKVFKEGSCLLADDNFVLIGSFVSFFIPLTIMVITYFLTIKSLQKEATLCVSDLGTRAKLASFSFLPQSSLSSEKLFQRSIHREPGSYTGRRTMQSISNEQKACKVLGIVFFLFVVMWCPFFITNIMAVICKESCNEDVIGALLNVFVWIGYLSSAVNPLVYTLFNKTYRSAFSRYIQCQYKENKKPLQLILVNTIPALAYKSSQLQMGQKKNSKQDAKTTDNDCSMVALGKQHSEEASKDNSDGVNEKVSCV
T2 sequence (P50406 whole entry): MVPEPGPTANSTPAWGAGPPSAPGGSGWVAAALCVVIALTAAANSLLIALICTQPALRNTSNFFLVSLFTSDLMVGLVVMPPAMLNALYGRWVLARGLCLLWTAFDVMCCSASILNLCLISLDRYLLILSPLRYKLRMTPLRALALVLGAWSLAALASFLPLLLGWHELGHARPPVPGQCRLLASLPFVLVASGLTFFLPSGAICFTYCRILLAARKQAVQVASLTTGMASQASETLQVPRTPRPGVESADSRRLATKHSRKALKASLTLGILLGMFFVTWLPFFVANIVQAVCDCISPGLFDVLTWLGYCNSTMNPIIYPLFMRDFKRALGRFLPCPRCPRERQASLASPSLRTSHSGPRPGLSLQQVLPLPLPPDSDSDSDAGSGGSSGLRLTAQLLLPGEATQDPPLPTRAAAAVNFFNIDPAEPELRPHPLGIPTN
Chain of 5-hydroxytryptamine receptor 1B (P28222 whole entry): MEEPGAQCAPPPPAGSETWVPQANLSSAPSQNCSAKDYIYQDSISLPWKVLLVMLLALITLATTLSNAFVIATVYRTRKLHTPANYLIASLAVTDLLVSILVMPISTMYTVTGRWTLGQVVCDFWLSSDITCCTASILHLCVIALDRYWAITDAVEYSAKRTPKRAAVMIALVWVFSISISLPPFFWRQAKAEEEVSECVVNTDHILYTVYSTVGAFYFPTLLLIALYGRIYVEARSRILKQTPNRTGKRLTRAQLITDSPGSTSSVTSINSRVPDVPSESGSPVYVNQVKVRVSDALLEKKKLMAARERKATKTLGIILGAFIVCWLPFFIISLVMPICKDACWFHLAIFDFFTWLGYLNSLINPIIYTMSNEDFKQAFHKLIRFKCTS
Chain of 5-hydroxytryptamine receptor 2B (P41595 whole entry): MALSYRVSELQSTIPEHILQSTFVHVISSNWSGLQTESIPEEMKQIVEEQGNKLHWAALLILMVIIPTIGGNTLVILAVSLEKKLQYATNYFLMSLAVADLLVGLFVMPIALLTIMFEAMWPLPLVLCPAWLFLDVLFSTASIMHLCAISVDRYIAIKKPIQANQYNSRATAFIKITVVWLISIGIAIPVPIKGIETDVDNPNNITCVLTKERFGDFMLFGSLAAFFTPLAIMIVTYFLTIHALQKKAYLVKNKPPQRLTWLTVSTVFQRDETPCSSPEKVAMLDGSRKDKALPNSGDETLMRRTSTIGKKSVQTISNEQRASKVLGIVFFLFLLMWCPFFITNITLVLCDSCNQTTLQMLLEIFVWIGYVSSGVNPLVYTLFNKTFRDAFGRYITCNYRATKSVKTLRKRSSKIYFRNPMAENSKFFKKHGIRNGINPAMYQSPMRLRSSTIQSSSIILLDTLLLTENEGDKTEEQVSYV
Chain of D(2) dopamine receptor (P14416 whole entry): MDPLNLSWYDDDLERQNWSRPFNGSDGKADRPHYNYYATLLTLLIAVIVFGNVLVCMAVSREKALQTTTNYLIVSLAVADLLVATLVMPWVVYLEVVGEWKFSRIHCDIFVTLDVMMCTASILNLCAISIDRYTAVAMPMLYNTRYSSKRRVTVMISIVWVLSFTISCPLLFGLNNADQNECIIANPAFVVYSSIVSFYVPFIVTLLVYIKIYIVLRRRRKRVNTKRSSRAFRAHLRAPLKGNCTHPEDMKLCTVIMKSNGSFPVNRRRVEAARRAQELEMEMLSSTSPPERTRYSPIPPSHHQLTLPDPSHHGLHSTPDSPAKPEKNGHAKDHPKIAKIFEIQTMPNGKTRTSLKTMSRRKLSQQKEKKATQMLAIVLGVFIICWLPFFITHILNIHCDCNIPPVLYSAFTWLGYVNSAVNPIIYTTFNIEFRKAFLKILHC
Chain of 5-hydroxytryptamine receptor 1E (P28566 whole entry): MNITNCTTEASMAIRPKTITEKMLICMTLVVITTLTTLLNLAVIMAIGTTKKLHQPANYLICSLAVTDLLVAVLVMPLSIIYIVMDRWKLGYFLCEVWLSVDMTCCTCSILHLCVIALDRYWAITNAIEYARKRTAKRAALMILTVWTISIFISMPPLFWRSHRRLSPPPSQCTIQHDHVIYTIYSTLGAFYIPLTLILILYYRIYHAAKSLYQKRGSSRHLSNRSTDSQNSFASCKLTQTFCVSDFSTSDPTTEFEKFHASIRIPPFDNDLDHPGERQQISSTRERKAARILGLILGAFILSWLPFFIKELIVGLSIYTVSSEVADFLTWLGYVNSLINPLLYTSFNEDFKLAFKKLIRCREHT

## COc1ccc(NS(=O)(=O)c2sc3ccc(Cl)cc3c2C)cc1N1CCN2CCCCC2C1 (configuration not stated)
[1]
  Ki: 631 nM
[2]
  Ki: > 1000 nM
[3]
  Ki: > 7940 nM
[4]
  Ki: > 7940 nM
[5]
  Ki: 5.01 nM
[6]
  Ki: > 3160 nM
[7]
  Ki: > 1000 nM
[8]
  Ki: 3980 nM
D(2) dopamine receptor
  Ki: 398 nM
[9]
  Ki: 316 nM
[10]
  Ki: 631 nM
[11]
  Ki: 2000 nM
D(3) dopamine receptor
  Ki: 1000 nM
[12]
  Ki: 2000 nM

## COc1ccc(NS(=O)(=O)c2sc3ccc(Cl)cc3c2C)cc1N1CCN2CCC[C@H]2C1
[13]
  Ki: 0.794 nM
[1]
  Ki: 126 nM
[2]
  Ki: 1580 nM
[3]
  Ki: 5010 nM
[4]
  Ki: 1000 nM
[6]
  Ki: 398 nM
[7]
  Ki: 316 nM
[8]
  Ki: 631 nM
D(2) dopamine receptor
  Ki: 1580 nM
[9]
  Ki: 100 nM
[10]
  Ki: 251 nM
[11]
  Ki: 1580 nM
D(3) dopamine receptor
  Ki: 316 nM
[12]
  Ki: 1260 nM

## COc1ccc(NS(=O)(=O)c2sc3ccc(Cl)cc3c2C)cc1N1CCN2CCC[C@@H]2C1
[1]
  Ki: 200 nM
[2]
  Ki: 1000 nM
[3]
  Ki: 1580 nM
[4]
  Ki: 631 nM
[5]
  Ki: 0.794 nM
[6]
  Ki: 631 nM
[7]
  Ki: 200 nM
[8]
  Ki: 631 nM
D(2) dopamine receptor
  Ki: 2000 nM
[9]
  Ki: 126 nM
[10]
  Ki: 1260 nM
[11]
  Ki: 1000 nM
D(3) dopamine receptor
  Ki: 631 nM
[12]
  Ki: 1260 nM
